Active and inactive are the calls of the source. How the calls were made is not given here.
System: CCRIS mutagenicity, Ames/micronucleus/aberration tests
Test: CCRIS mutagenicity studies
Details: Test System: AMES SALMONELLA TYPHIMURIUM
[1] = Strain/Indicator: TA98, Metabolic Activation: NONE, Method: PREINCUBATION
[2] = Strain/Indicator: TA98, Metabolic Activation: RAT, LIVER, S-9, AROCLOR 1254, Method: PREINCUBATION
[3] = Strain/Indicator: TA100, Metabolic Activation: NONE, Method: PREINCUBATION
[4] = Strain/Indicator: TA100, Metabolic Activation: RAT, LIVER, S-9, AROCLOR 1254, Method: PREINCUBATION
[5] = Strain/Indicator: TA1535, Metabolic Activation: NONE, Method: PREINCUBATION
[6] = Strain/Indicator: TA1537, Metabolic Activation: NONE, Method: PREINCUBATION
[7] = Strain/Indicator: TA100, Metabolic Activation: NONE, Method: STANDARD PLATE
[8] = Strain/Indicator: TA98, Metabolic Activation: NONE, Method: STANDARD PLATE
[9] = Strain/Indicator: TA98, Metabolic Activation: RAT, LIVER, S-9, AROCLOR 1254, Method: STANDARD PLATE
[10] = Strain/Indicator: TA100, Metabolic Activation: RAT, LIVER, S-9, AROCLOR 1254, Method: STANDARD PLATE

Cc1nccnc1C
mutagenic call [1]: inactive; negative | mutagenic call [2]: inactive; negative | mutagenic call [3]: inactive; negative | mutagenic call [4]: inactive; negative | mutagenic call (Strain/Indicator: TA102, Metabolic Activation: NONE, Method: PREINCUBATION): inactive; negative | mutagenic call (Strain/Indicator: TA102, Metabolic Activation: RAT, LIVER, S-9, AROCLOR 1254, Method: PREINCUBATION): inactive; negative

CCOc1ccccc1[N+](=O)[O-]
mutagenic call [1]: inactive; negative | mutagenic call [3]: active; positive | mutagenic call [5]: active; positive | mutagenic call [6]: inactive; negative | mutagenic call (Strain/Indicator: TA1538, Metabolic Activation: NONE, Method: PREINCUBATION): inactive; negative

CCCCOc1cc([N+](=O)[O-])ccc1C(=O)NOC(C)=O
mutagenic call [7]: active; positive | mutagenic call (Strain/Indicator: TA100, Metabolic Activation: RAT S9, AROCLOR, Method: STANDARD PLATE): active; positive

CC1(C)CC(C(=O)O)C(C)(C)N1[O] (stereo not given)
mutagenic call [8]: inactive; negative | mutagenic call [7]: inactive; negative | mutagenic call (Strain/Indicator: TA102, Metabolic Activation: NONE, Method: STANDARD PLATE): inactive; negative | mutagenic call (Strain/Indicator: TA102, Metabolic Activation: XANTHINE OXIDASE, Method: STANDARD PLATE): inactive; negative | mutagenic call (Strain/Indicator: TA104, Metabolic Activation: NONE, Method: STANDARD PLATE): inactive; negative | mutagenic call (Strain/Indicator: TA104, Metabolic Activation: XANTHINE OXIDASE, Method: STANDARD PLATE): inactive; negative

C=C(C)C(=O)OCCCCCOC(=O)C(=C)C
mutagenic call [8]: inactive; negative | mutagenic call [9]: inactive; negative | mutagenic call (Strain/Indicator: TA98, Metabolic Activation: RAT, LIVER, S-9, SODIUM PHENOBARBITAL, Method: STANDARD PLATE): inactive; negative | mutagenic call [7]: inactive; negative | mutagenic call [10]: inactive; negative | mutagenic call (Strain/Indicator: TA100, Metabolic Activation: RAT, LIVER, S-9, SODIUM PHENOBARBITAL, Method: STANDARD PLATE): inactive; negative | mutagenic call (Strain/Indicator: TA1535, Metabolic Activation: NONE, Method: STANDARD PLATE): inactive; negative | mutagenic call (Strain/Indicator: TA1535, Metabolic Activation: RAT, LIVER, S-9, AROCLOR 1254, Method: STANDARD PLATE): inactive; negative | mutagenic call (Strain/Indicator: TA1535, Metabolic Activation: RAT, LIVER, S-9, SODIUM PHENOBARBITAL, Method: STANDARD PLATE): inactive; negative | mutagenic call (Strain/Indicator: TA1537, Metabolic Activation: NONE, Method: STANDARD PLATE): inactive; negative | mutagenic call (Strain/Indicator: TA1537, Metabolic Activation: RAT, LIVER, S-9, AROCLOR 1254, Method: STANDARD PLATE): inactive; negative | mutagenic call (Strain/Indicator: TA1537, Metabolic Activation: RAT, LIVER, S-9, SODIUM PHENOBARBITAL, Method: STANDARD PLATE): inactive; negative | mutagenic call (Strain/Indicator: TA1538, Metabolic Activation: NONE, Method: STANDARD PLATE): inactive; negative | mutagenic call (Strain/Indicator: TA1538, Metabolic Activation: RAT, LIVER, S-9, AROCLOR 1254, Method: STANDARD PLATE): inactive; negative | mutagenic call (Strain/Indicator: TA1538, Metabolic Activation: RAT, LIVER, S-9, SODIUM PHENOBARBITAL, Method: STANDARD PLATE): inactive; negative

N#Cc1cccc(/C=C\c2ccc([N+](=O)[O-])cc2)c1
mutagenic call (Strain/Indicator: TA98(NR), Metabolic Activation: NONE, Method: STANDARD PLATE): active; positive | mutagenic call (Strain/Indicator: TA98 (NR), Metabolic Activation: S-9, Method: STANDARD PLATE): active; positive | mutagenic call [8]: active; positive | mutagenic call (Strain/Indicator: TA98, Metabolic Activation: S-9, Method: STANDARD PLATE): active; positive | mutagenic call (Strain/Indicator: TA100 (NR), Metabolic Activation: NONE, Method: STANDARD PLATE): inactive; negative | mutagenic call (Strain/Indicator: TA100 (NR), Metabolic Activation: S-9, Method: STANDARD PLATE): inactive; negative | mutagenic call [7]: active; positive | mutagenic call (Strain/Indicator: TA100, Metabolic Activation: S-9, Method: STANDARD PLATE): active; positive

Nc1ccc(-c2ccc(N)cc2[N+](=O)[O-])c([N+](=O)[O-])c1
mutagenic call [1]: active; positive | mutagenic call (Strain/Indicator: TA98, Metabolic Activation: RAT, LIVER, S-9, KANECHLOR 500, Method: PREINCUBATION): active; positive

Clc1cccc(Cl)c1Cl
mutagenic call (Strain/Indicator: TA98, Metabolic Activation: HAMSTER, LIVER, S-9, AROCLOR 1254, Method: PREINCUBATION): inactive; negative | mutagenic call [1]: inactive; negative | mutagenic call [2]: inactive; negative | mutagenic call (Strain/Indicator: TA100, Metabolic Activation: HAMSTER, LIVER, S-9, AROCLOR 1254, Method: PREINCUBATION): inactive; negative | mutagenic call [3]: inactive; negative | mutagenic call [4]: inactive; negative | mutagenic call (Strain/Indicator: TA1535, Metabolic Activation: HAMSTER, LIVER, S-9, AROCLOR 1254, Method: PREINCUBATION): inactive; negative | mutagenic call [5]: inactive; negative | mutagenic call (Strain/Indicator: TA1535, Metabolic Activation: RAT, LIVER, S-9, AROCLOR 1254, Method: PREINCUBATION): inactive; negative | mutagenic call (Strain/Indicator: TA1537, Metabolic Activation: HAMSTER, LIVER, S-9, AROCLOR 1254, Method: PREINCUBATION): inactive; negative | mutagenic call [6]: inactive; negative | mutagenic call (Strain/Indicator: TA1537, Metabolic Activation: RAT, LIVER, S-9, AROCLOR 1254, Method: PREINCUBATION): inactive; negative

CP1(C)=NP(C)(C)=NP(C)(C)=N1
mutagenic call [8]: inactive; negative | mutagenic call [9]: inactive; negative | mutagenic call [7]: inactive; negative | mutagenic call [10]: inactive; negative

— PubChem BioAssay AID1259407 (Chemical Carcinogenesis Research Information System (CCRIS), 2018)
